# From ChEMBL document CHEMBL1201862, “PubChem BioAssay data set” (2004)
#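 Assay format: 96-well plates, 48-hour exposure. Here, GI50 denotes the concentration required for 50% inhibition of growth.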 Calls of active or inactive are those of the source. No stated cut-off is given here; in the data, active = GI50 up to about 1.1 µM and inactive = higher.
# Tested on: BT-549
# Experiment: NCI anticancer screen, dose series, 48 h
row,SMILES,GI50
1,C[Si](C)(c1ccc(C(=O)O)cc1)c1ccc(C(=O)O)cc1,> 100 µM (inactive)
2,CC(=O)Nc1cc(CN2CCCCC2)c(O)c2ncccc12,77.4 µM (inactive)
3,O=C(O)c1cccc2cccc(-c3cccc4cccc(C(=O)O)c34)c12,> 100 µM (inactive)
4,Clc1cccc(Cl)c1C(Nc1nncs1)Nc1nncs1,73.3 µM (inactive)
5,COc1ccc2cc(C(=O)NCCCNC(=O)c3ccc4cc(OC)ccc4c3)ccc2c1,> 64.7 µM (inactive)
6,O=C1N/C(=N/N=C\C(O)C(O)C(O)C(O)CO)N/C1=C/c1ccc(Cl)cc1 (configuration not stated),> 100 µM (inactive)
7,C=CC(Br)(CBr)CCC(Br)C(C)C (configuration not stated),3.14 µM (inactive)
8,C[C@]12CCC(=O)C=C1C[C@@H](O)[C@@H]1[C@@H]2CC[C@@]2(C)[C@H]1CC[C@]2(C)O,> 100 µM (inactive)
9,COc1ccc([C@]23CCN4COC[C@@H]([C@H]42)C2(CC3)OCC(C)(C)CO2)cc1OC,> 100 µM (inactive)
10,O=[N+]([O-])c1ccc(-c2nc3ccccc3o2)cc1,> 100 µM (inactive)
11,CC1CCC2C(C)(C)CC3(C)CCC1C23O (configuration not stated),18.1 µM (inactive)
12,CCCCCCc1cc2cc(-c3cn4c(n3)sc3ccccc34)c(=O)oc2cc1O,> 100 µM (inactive)
13,O=C1/C(=N\n2c(S)nnc2-c2ccncc2)c2cc(Cl)ccc2N1CN1CCCCC1,25.9 µM (inactive)
14,CSc1nc2ccccc2c(=O)n1/N=C1\C(=O)N(CN2CCCCC2)c2ccc(Cl)cc21,15 µM (inactive)
15,CC(=O)Oc1ccc2c(c1)O/C(=C\c1ccc(N(C)C)cc1)C2=O,68.4 µM (inactive)
16,O=C(Cc1ccc(Cl)c(Cl)c1)NCCCN1CCN(CCCN2CCCCC2)CC1,21.9 µM (inactive)
17,Cc1cc2c(cc1Cl)SSc1cc(Cl)c(C)cc1S(=O)(=O)Nc1nc(N)nn1C(O)n1nc(N)nc1NS2(=O)=O,> 10 µM (inactive)
18,N#CCCN(CCC#N)c1ccc(/C=C2\N=C(c3ccccc3)N(c3ccc(C(=O)O)cc3)C2=O)cc1,24.4 µM (inactive)
19,CN1C2CCC1CC(CCOC(c1ccc(F)cc1)c1ccc(F)cc1)C2 (configuration not stated),16.9 µM (inactive)

row,SMILES,GI50
1,CC1=C(C(=O)N(C)c2ccc(Cl)c(C(=O)OC(C)C)c2)SCCO1,40.9 µM (inactive)
2,COc1ccc(/C=N/NS(=O)(=O)c2ccc(/C=C3\NC(=O)NC3=O)cc2)cc1,> 100 µM (inactive)
3,CCOC(=O)n1cncc1CC(NC(=O)Cc1c(C(=O)C=C(C)C)[nH]c2ccccc12)C(=O)OC (configuration not stated),20 µM (inactive)
4,Cc1ccc(NC(=O)/C(Cc2cc(=O)oc3cc(O)ccc23)=N\NC(=O)C[N+](C)(C)C)cc1C,> 100 µM (inactive)
5,COc1cc(C2c3cc4c(cc3OC(NNS(=O)(=O)c3ccc(C)cc3)C2C)OCO4)cc(OC)c1OC (configuration not stated),3.32 µM (inactive)
6,C=CCCCCNC(=O)C[C@@H]1C2=C(CC[C@H]1O[Si](C)(C)C(C)(C)C)N1C(=O)CCC/C=C\C1C2 (some centres not stated),16.6 µM (inactive)
7,O=C(Nc1ccc(Cl)cc1C(F)(F)F)C(=O)Nn1c(S)nc2ccccc2c1=O,> 100 µM (inactive)
8,COc1ccc2[nH]c3c(c2c1)CC(=O)N1CCCC(CC3O)C1 (configuration not stated),> 100 µM (inactive)
9,Brc1c2c(c(Br)c3nsnc13)N=S=N2,12.3 µM (inactive)
10,O=C(NN1C(=O)C=CC1=O)c1ccccc1Nc1ccccc1C(=O)NN1C(=O)C=CC1=O,> 100 µM (inactive)
11,c1ccc2sc(C3(N4CCC5(CC4)OCCO5)CCCCC3)cc2c1,> 100 µM (inactive)
12,CCCCNC(=S)c1ccc(OC(=O)Nc2ccc(Cl)cc2)cc1,20.6 µM (inactive)
13,CCOC(=O)N(NC(=O)NC(C)C)c1ccccc1,> 100 µM (inactive)
14,CC(=O)OCC1OC(N2C(S)=C(C#N)C(c3ccco3)C(C(C)=O)=C2c2ccccc2)C(OC(C)=O)C(OC(C)=O)C1OC(C)=O (configuration not stated),> 100 µM (inactive)
15,O=C1CCc2nc3ncccc3cc2C1,> 100 µM (inactive)
16,c1ccc(CN2CCC(=NN3CCCCC3)CC2)cc1,43.5 µM (inactive)
17,Cc1ccc(C(=O)Nc2ccc(CP(=O)(O)O)cc2CP(=O)(O)O)cc1NC(=O)c1cccc(NC(=O)Nc2cccc(C(=O)Nc3cc(C(=O)Nc4ccc(CP(=O)(O)O)cc4CP(=O)(O)O)ccc3C)c2)c1,> 100 µM (inactive)
18,O=C1CCCCC/C1=C\c1cccc([N+](=O)[O-])c1,24.5 µM (inactive)
